# Literature values, collected in PMC12394912 (RSC Chemical Biology, 2025).
compound,measurement,value
Cc1ncsc1-c1ccc(CNC(=O)[C@@H]2C[C@@H](O)CN2C(=O)[C@@H](NC(=O)COCCOCCOCCNC(=O)C[C@@H]2N=C(c3ccc(Cl)cc3)c3c(sc(C)c3C)-n3c(C)nnc32)C(C)(C)C)cc1 [MZ1],"PAMPA permeability, fold lower than E3 ligand VH032",~290 fold
same,"PAMPA permeability, fold lower than POI ligand JQ1",approximately 190 fold
